Experimental data taken from article PMC5785531, “Pharmacokinetic parameters explain the therapeutic activity of antimicrobial agents in a silkworm infection model” (Scientific Reports, 2018).
In brackets after ≈: the same amount, converted by molar mass. Like-named read-outs stand apart in the source and are kept apart here.

Tests used:
[1] = tested on: S. aureus MRSA4; assay: MIC against S. aureus MRSA4 in vitro (broth dilution); assay type: cell-based; details: Staphylococcus aureus
Description: We synthesized 50 compounds (Fig. 2, Supplementary Table 1) using the Steglich esterification scheme[31] in the presence of a […], 1-ethyl-3-(3-dimethylaminopropyl)-carbodiimide hydrochloride (Fig. 1b). Antimicrobial activities of the compounds were examined by determining the MIC against S. aureus MRSA4 in vitro; therapeutic activities were examined using a systemic infection model of silkworms infected with S. aureus MSSA1. […]
(§1) Antimicrobial activity was assessed by determining the MIC by broth dilution assay according to our previous reports[21],[35],[36] as per the Clinical and Laboratory Standards Institute[37]. Briefly, serial dilutions of compound 5, compound 7, and positive controls were prepared in cation-adjusted Mueller-Hinton Broth (MHB, Difco, Franklin Lakes, NJ, USA), 100 µl of which was dispensed into each well of a round-bottomed 96-well plate. The final concentrations in the well ranged from 128 µg/ml to 0.0625 µg/ml. Bacteria were grown at 37 °C overnight on either Luria Bertani (tryptone 10 g/l, yeast extract 5 g/l, NaCl 10 g/l) or Tryptic Soy Broth (TSB, Difco) agar plates or sheep blood agar plates (Eiken Chemical Co. Ltd., Tokyo, Japan). Bacterial inoculum was prepared by direct suspension of the colonies in 0.9% saline, and adjusted to obtain a turbidity equivalent to a 0.5 McFarland standard using a spectrophotometer UV-1280 (Shimadzu Corp., Kyoto, Japan). The suspension was then diluted 1:20 in cation-adjusted MHB (Difco), and 10 µl of it was inoculated into each well of previously prepared 96-well plates containing compounds to obtain approximately 5 × 10^4 colony forming units/well and incubated at 37 °C for 20 h. […] Vancomycin (Wako Pure Chemicals) or norfloxacin (Sigma Aldrich, St Louis, MO, USA) were used as positive controls. Each plate contained a growth control well and a vehicle control well. The MIC was determined as the minimum concentration that inhibited the growth of the bacteria.

[2] = tested on: Streptococcus agalactiae JCM5671; assay: MIC by broth microdilution assay; assay type: cell-based; details: MHB with 2.5% lysed horse blood, 24 h, median of three experiments
Method: as §1, with “obtain approximately 5 × 10^4 colony forming units/well and incubated at 37 °C for 20 h.” left out

[3] = tested on: Streptococcus pyogenes SSI-9; assay: MIC by broth microdilution assay; assay type: cell-based; details: SSI9, MHB with 2.5% lysed horse blood, 24 h, median of three experiments
Method: as §1, with “obtain approximately 5 × 10^4 colony forming units/well and incubated at 37 °C for 20 h.” left out

[4] = tested on: Streptococcus pneumoniae (clinical isolate); assay: MIC by broth microdilution assay; assay type: cell-based; details: MHB with 2.5% lysed horse blood, 24 h, median of three experiments
Method: as §1, with “obtain approximately 5 × 10^4 colony forming units/well and incubated at 37 °C for 20 h.” left out

[5] = tested on: S. aureus MSSA1; assay: Silkworm systemic infection model, therapeutic activity (ED50); assay type: in vivo, Staphylococcus aureus
Description: We synthesized 50 compounds (Fig. 2, Supplementary Table 1) using the Steglich esterification scheme[31] in the presence of a […], 1-ethyl-3-(3-dimethylaminopropyl)-carbodiimide hydrochloride (Fig. 1b). Antimicrobial activities of the compounds were examined by determining the MIC against S. aureus MRSA4 in vitro; therapeutic activities were examined using a systemic infection model of silkworms infected with S. aureus MSSA1.
A total of 108,373 compounds from the chemical library of the Drug Discovery Initiative at the University of Tokyo were screened for antibacterial activity against S. aureus strain MRSA4 as previously reported. Those compounds that inhibited the growth of MRSA4 at 100 µM were further evaluated for their therapeutic effects in silkworms infected with S. aureus strain MSSA1 according to previously reported studies[17],[21].

[6] = MRSA, MRSA4 (clinical isolate), median of three experiments (Table 1)
[7] = S. aureus MRSA4 in vitro, SAR series (Fig. 2)
[8] = Staphylococcus aureus, silkworms infected with S. aureus MSSA1 (Fig. 2), read-out: ED50

Structure (SMILES)	MIC [1, 6] [µg/mL]	MIC [1, 7] [µg/mL]	MIC [2] [µg/mL]	MIC [3] [µg/mL]	MIC [4] [µg/mL]	ED50 ([5]; S. aureus-infected silkworms) [µg/g]	ED50 [5, 8] [mg/kg]
O=C(OCc1cc(Cl)cc(Cl)c1)c1ccc([N+](=O)[O-])s1 [compound 5]	0.5 (≈ 1.51 µM)	0.5 (≈ 1.51 µM)	> 128	8 (≈ 24.1 µM)	1 (≈ 3.01 µM)	22	22
O=C(OCc1ccccc1)c1ccc([N+](=O)[O-])s1 [compound 7]	1 (≈ 3.8 µM)	1 (≈ 3.8 µM)	> 128	16 (≈ 60.8 µM)	1 (≈ 3.8 µM)	> 170	> 170
